Series [1] is described as follows: Selectivity index, ratio of EC50 for effect on basal transcription in human U251 cells co-transfected with pGL3 to EC50 for Inhibition of human HIF1alpha expressed in human U251 cells co-transfected with pGL2-TK-HRE. The arrangement: species or system U-251.
Series [2] relates to U-251. Nature of the series: Effect on basal transcription in human U251 cells co-transfected with pGL3 incubated for 24 hrs by luciferase reporter gene assay. The class given is ADME, cell-based. Conditions: U-251, 24 h.
Series [3] deals with T1, Hypoxia-inducible factor 1-alpha (Homo sapiens, UniProt Q16665). The series is described as follows: Inhibition of human HIF1alpha-mediated transcription expressed in human U251 cells co-transfected with pGL2-TK-HRE incubated for 24 hrs by luciferase reporter gene assay. The class given is cell-based, U-251.
Target sequence in this assay (Q16665 whole entry): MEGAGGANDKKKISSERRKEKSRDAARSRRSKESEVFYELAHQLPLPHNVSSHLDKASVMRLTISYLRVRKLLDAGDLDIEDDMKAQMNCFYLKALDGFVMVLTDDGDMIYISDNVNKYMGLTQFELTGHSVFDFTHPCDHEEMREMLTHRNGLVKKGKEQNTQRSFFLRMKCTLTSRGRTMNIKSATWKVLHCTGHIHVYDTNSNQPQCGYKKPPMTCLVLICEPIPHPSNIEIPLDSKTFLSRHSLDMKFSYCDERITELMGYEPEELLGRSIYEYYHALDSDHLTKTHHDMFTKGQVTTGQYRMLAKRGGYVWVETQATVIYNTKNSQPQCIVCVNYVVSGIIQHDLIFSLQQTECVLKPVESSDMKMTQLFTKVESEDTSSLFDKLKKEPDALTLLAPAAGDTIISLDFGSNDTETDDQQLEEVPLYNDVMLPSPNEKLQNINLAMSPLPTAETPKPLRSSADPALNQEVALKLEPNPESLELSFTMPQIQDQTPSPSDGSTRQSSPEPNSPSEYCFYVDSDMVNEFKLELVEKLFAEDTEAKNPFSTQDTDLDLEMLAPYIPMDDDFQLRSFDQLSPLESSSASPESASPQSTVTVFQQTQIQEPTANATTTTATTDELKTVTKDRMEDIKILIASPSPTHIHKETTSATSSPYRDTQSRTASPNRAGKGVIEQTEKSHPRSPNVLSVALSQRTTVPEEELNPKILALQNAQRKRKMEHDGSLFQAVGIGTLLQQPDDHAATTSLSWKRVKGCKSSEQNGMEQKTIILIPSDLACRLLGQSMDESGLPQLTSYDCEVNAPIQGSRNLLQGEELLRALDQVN
The test system of series [4] is U-251. The series is described as follows: Inhibition of human HIF1alpha mRNA expression in wild type human U251 cells at 10 uM incubated for 16 hrs under hypoxic condition (reference value: 0.9 no unit). It counts as functional.
Series [5] deals with T1, Hypoxia-inducible factor 1-alpha. Nature of the series: Inhibition of human HIF1alpha-mediated VEGF mRNA expression in wild type human U251 cells at 10 uM incubated for 16 hrs under hypoxic condition. To be noted: U-251. The class given is cell-based.
Target sequence in this assay (Q16665 whole entry, looked up): as the sequence (Q16665 whole entry) above
The target is the same in series [6]. The series is described as follows: Inhibition of human HIF1alpha-mediated VEGF mRNA expression in wild type human U251 cells at 1 uM incubated for 16 hrs under hypoxic condition. The class given is cell-based. Conditions: U-251.
Target sequence in this assay (Q16665 whole entry, looked up): as the sequence (Q16665 whole entry) above
Series [7] deals with U-251. Nature of the series: Inhibition of human HIF1alpha mRNA expression in wild type human U251 cells at 1 uM incubated for 8 hrs under hypoxic condition (reference value: 0.7 no unit). It counts as functional.
Series [8] relates to U-251. Nature of the series: Inhibition of human HIF1alpha mRNA expression in wild type human U251 cells at 1 and 10 uM incubated for 8 and 16 hrs under normoxic condition. It counts as functional, cell-based.
In series [9] the test system is U-251. The series is described as follows: Inhibition of human HIF1alpha mRNA expression in wild type human U251 cells at 1 uM incubated for 16 hrs under hypoxic condition (reference value: 0.9 no unit). It counts as functional.
The subject of series [10] is U-251. Nature of the series: Inhibition of human HIF1alpha mRNA expression in wild type human U251 cells at 10 uM incubated for 8 hrs. Conditions: U-251, 8 h. It counts as functional.
Series [11] has as its system U-251. The series is described as follows: Inhibition of human HIF1alpha mRNA expression in wild type human U251 cells at 10 uM incubated for 16 hrs. The class given is functional. Conditions: U-251, 16 h.
Series [12] concerns the target T1, Hypoxia-inducible factor 1-alpha. Nature of the series: Inhibition of HIF1alpha protein accumulation in wild type human U251 cells at 10 uM incubated for 16 hrs under normoxic condition. The class given is cell-based. Conditions: U-251.
Target sequence in this assay (Q16665 whole entry, looked up): as the sequence (Q16665 whole entry) above
Series [13] concerns U-251. The series is described as follows: Inhibition of hypoxia-induced HIF1beta protein accumulation in wild type human U251 cells at 1 and 10 uM incubated for 8 hrs under hypoxic condition. It counts as cell-based.
Series [14] concerns U-251. The series is described as follows: Inhibition of human HIF1alpha mRNA expression in wild type human U251 cells at 10 uM incubated for 8 hrs under hypoxic condition (reference value: 0.7 no unit). It counts as functional.
For series [15], the target named is T1, Hypoxia-inducible factor 1-alpha. The series is described as follows: Inhibition of human HIF1alpha-mediated VEGF mRNA expression in wild type human U251 cells at 10 uM incubated for 16 hrs under normoxic condition (Rvb =2.9 No unit). To be noted: U-251. The class given is cell-based.
Target sequence in this assay (Q16665 whole entry, looked up): as the sequence (Q16665 whole entry) above
Series [16] shares this target. Nature of the series: Inhibition of hypoxia-induced HIF1alpha protein accumulation in wild type human U251 cells at 1 and 10 uM incubated for 8 hrs under hypoxic condition. The class given is cell-based. Conditions: U-251.
Target sequence in this assay (Q16665 whole entry, looked up): as the sequence (Q16665 whole entry) above
For series [17] the target is unchanged. The series is described as follows: Inhibition of human HIF1alpha-mediated VEGF mRNA expression in wild type human U251 cells at 10 uM incubated for 8 hrs under hypoxic condition (reference value: 3.5 No unit). The class given is cell-based. To be noted: U-251.
Target sequence in this assay (Q16665 whole entry, looked up): as the sequence (Q16665 whole entry) above
For series [18], the system named is U-251. The series is described as follows: Effect on basal transcription in wild type human U251 cells at 1 and 10 uM incubated for 8 and 16 hrs under normoxic condition. The class given is ADME, cell-based. To be noted: u-251, 16 h.
The target of series [19] is T1, Hypoxia-inducible factor 1-alpha. The series is described as follows: Inhibition of human HIF1alpha-mediated VEGF mRNA expression in wild type human U251 cells at 1 uM incubated for 16 hrs under normoxic condition (Rvb =2.9 No unit). It counts as cell-based. To be noted: U-251.
Series [20] relates to U-251. The series is described as follows: Inhibition of hypoxia-induced HIF1beta protein accumulation in wild type human U251 cells at 1 and 10 uM incubated for 8 hrs under normoxic condition. The class given is cell-based.
Series [21] has as its target T1, Hypoxia-inducible factor 1-alpha. The series is described as follows: Inhibition of human HIF1alpha-mediated VEGF mRNA expression in wild type human U251 cells at 1 uM incubated for 8 hrs under hypoxic condition (reference value: 3.5 No unit). It counts as cell-based. To be noted: U-251.

The pEC50 is the EC50 on a negative log10 scale, so that one unit is a factor of ten. Usually inhibition stands for the drop in the measured response relative to a control, in per cent.

pEC50: −log10 of the molar value. Activity calls are given as the source filed them. The rule behind the calls is not given here.

As to `C[C@@]12C(=O)c3cccc(O)c3C(=O)[C@@H]1C[C@@H]1C(=CC[C@@H]3C(=O)NC(=O)[C@@H]31)[C@@H]2c1ccc(C(F)(F)F)cc1` (racemic), the “Ratio EC50” value in series [1] is above 3. Moreover, the pEC50 in [2] is below 4.70; in [3], 5.17.

Turning to `C[C@@]12C[C@@H]3C(=CC[C@@H]4C(=O)NC(=O)[C@@H]43)[C@H](c3ccc(C(F)(F)F)cc3)[C@@H]1C(=O)c1ccccc1C2=O` (racemic), the “fold change (FC)” value is 0.21 in series [4]; 0.8 in series [7]; 0.7 in series [9]; 0.5 in series [14]; 1.2 in series [15]; 1.6 in series [17]. For the same molecule, the figures for the fold change (FC) in [19] and in [21] were 1.9 and 3, respectively. The inhibition in series [5] was 59%; in [6] it was 35%; in series [16], “Dose-dependent effect”. The inhibition entry in [8] and in series [12] was “Active” in each case. Further, the figures for the inhibition at 10 µM in series [10] and in [11] were 29% and 45%, respectively. The “Ratio EC50” value in [1] was above 8.6. The inhibition result in series [13] and in series [20] was “inactive” in each case. Besides, the Activity entry in [18] is reported as “Non-toxic”. The pEC50 in [2] is below 4.70; in [3], 5.64.

In the case of `C[C@@]12C[C@@H]3C(=CC[C@@H]4C(=O)N(CCC(=O)O)C(=O)[C@@H]43)[C@H](c3ccc(Br)cc3)[C@@H]1C(=O)c1ccccc1C2=O` (racemic), the “fold change (FC)” value is 0.2 in [4]; 0.8 in [7]; 0.7 in [9]; 0.4 in series [14]; 0.9 in [15]; 1.7 in series [17]. The figures for the fold change (FC) in [19] and in series [21] were 1.6 and 2.7, respectively. Further, the inhibition in series [5] was 69%; in [6] it was 38%; in series [16], “Dose-dependent effect”. The inhibition entry in series [8] and in series [12] was “Active” in each case. The inhibition at 10 µM in series [10] turned out to be 43%; in series [11] it was 78%. The “Ratio EC50” value in series [1] is above 14. In addition, the inhibition entry in series [13] and in series [20] was “inactive” in each case. Further, the Activity result in [18] is reported as “Non-toxic”. The pEC50 in series [2] is below 4.70; in [3], 5.85.

For the molecule `COc1cccc2c1C(=O)[C@@H]1C[C@@H]3C(=CC[C@@H]4C(=O)NC(=O)[C@@H]43)[C@H](c3ccc(C(F)(F)F)cc3)[C@]1(C)C2=O` (racemic), in series [1], the “Ratio EC50” value was above 3. Besides, the negative logarithm of the EC50 (pEC50) in series [2] was below 4.70; in series [3], 5.17.

In the case of `COc1cccc2c1C(=O)[C@@H]1C[C@@H]3C(=CC[C@@H]4C(=O)N(CCC(=O)O)C(=O)[C@@H]43)[C@H](c3ccc(Br)cc3)[C@]1(C)C2=O` (racemic), in series [1], the “Ratio EC50” value is above 1.4. The pEC50 in series [2] is below 4.70; in series [3], 4.81.

As to `C[C@@]12C[C@@H]3C(=CC[C@@H]4C(=O)NC(=O)[C@@H]43)[C@H](c3ccc(C(F)(F)F)cc3)[C@]1(C)C(=O)c1ccccc1C2=O` (racemic), the “Ratio EC50” value in series [1] is above 2.7. Besides, the figures for the negative logarithm of the EC50 (pEC50) in series [2] and in [3] were below 4.70 and 5.11, respectively.

`C[C@@]12C[C@@H]3C(=CC[C@@H]4C(=O)N(CCC(=O)O)C(=O)[C@@H]43)[C@H](c3ccc(F)cc3)[C@@H]1C(=O)c1ccccc1C2=O` (racemic): in series [1], the “Ratio EC50” value worked out at 2.15. Also, the pEC50 was 5.06 in series [2] and 5.39 in series [3].

In [2], `CC[C@@]1(O)C(=O)OCc2c1cc1n(c2=O)Cc2cc3c(CN(C)C)c(O)ccc3nc2-1` [TOPOTECAN] had a pEC50 below 4.70.

The values are drawn from ChEMBL document CHEMBL3585251, “Tetracycline analogues with a selective inhibitory effect on HIF-1” (Medchemcomm, 2014).
